Laboratory results reported in US20240374631A1, “A COMPOSITION FOR IMPROVING GUT MICROBIOTA, BEHAVIOURAL PATTERN, ALPHA-SYNUCLEIN LEVELS, SLEEP PATTERN AND/OR SERUM MELATONIN” (GN Corporation Co Ltd, priority 2021, published 2024).

System: α-synuclein on the neuroblastoma cell line (SHSY-5Y Tet-On: SCC291)
Experiment: Expression of α-synuclein on neuroblastoma cell line stimulated with beta-glucan or PMA (glutaraldehyde-fixed cellular ELISA, 3 days)
Type: cell-based
Conditions: BG-AF202 50 μg/mL, PMA 500 ng/mL
Procedure: Neuroblastoma cell line (SHSY-5Y Tet-On: SCC291) (MERCK) was suspended in 10% FCS-DMEM/F12 medium and seeded into 96-well microplates to achieve a cell count of 5×10^4 cells/well. After 24 hours of incubation, the cells were washed with 10% FCS-DMEM/F12 medium and new 10% FCS-DMEM/F12 medium was added.
Then, β-glucan AFO-202 (50 μg/mL) and PMA (500 ng/mL) (Sigma) were added to the medium, and the cells were cultured for 1 to 3 days. After incubation, the wells were washed three times with PBS and fixed in 0.25% glutaraldehyde-PBS for 1 hour at room temperature. After fixation, the wells were washed three times with PBS-0.05% Tween (PBS-T). After washing the wells with PBS-T, 50 μL of 500-fold diluted α-synuclein polyclonal rabbit antibody (proteintech Co. 10842-1-AP) was added to the wells and incubated at room temperature for 1 h. Then, 2% BSA-PBS-T was added and left for 1 h (to block non-specific reactions).
After 1 hour, the wells were washed with PBS-T and 50 μL of biotin-labeled anti-rabbit IgG antibody (Cosmo Bio) diluted 5,000-fold was added to the wells and the reaction was carried out for 40 minutes at room temperature. […]
After that, the absorbance (OD value) was measured with a microplate reader (450 nm) (Tosoh). Data were expressed as […] value (sample OD value−blank OD value). The expression rate was calculated based on the control (None). […]

CCCCCCCCCCCCCC(=O)O[C@@H]1[C@@H](C)[C@@]2(O)[C@@H](C=C(CO)C[C@]3(O)C(=O)C(C)=C[C@@H]23)[C@@H]2C(C)(C)[C@]12OC(C)=O [PMA]
α-synuclein expression (%) vs. None: 50.1% | δOD value (None 0.281): 0.166
